This assay concerns the target Mothers against decapentaplegic homolog 3 (Homo sapiens, UniProt P84022). Put plainly: SMAD3 transcription factor inhibitors, dose response (AID 715).
Mothers against decapentaplegic homolog 3, sequence (P84022 whole entry): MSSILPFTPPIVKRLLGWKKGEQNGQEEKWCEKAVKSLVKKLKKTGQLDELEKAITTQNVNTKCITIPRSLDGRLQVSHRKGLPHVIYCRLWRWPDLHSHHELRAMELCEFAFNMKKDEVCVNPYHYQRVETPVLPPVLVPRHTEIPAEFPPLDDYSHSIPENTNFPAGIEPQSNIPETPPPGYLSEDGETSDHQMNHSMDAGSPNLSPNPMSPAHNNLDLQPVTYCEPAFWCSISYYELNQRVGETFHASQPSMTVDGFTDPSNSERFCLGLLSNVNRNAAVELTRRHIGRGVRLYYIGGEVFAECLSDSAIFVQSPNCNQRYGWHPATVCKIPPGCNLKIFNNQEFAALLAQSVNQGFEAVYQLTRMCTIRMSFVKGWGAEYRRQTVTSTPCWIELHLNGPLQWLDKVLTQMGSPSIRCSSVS
What is called IC50 is the concentration that gives 50% inhibition. Lower therefore signals greater potency in that assay. `CCN(CC)P(=O)(NC(=O)C(Cl)(Cl)Cl)N(CC)CC` [MLS000564159] had an IC50 of 14.1 µM.
Consider `CC1(C)CC(=O)C(C2(O)C(=O)NC(=O)NC2=O)C(=O)C1` [5-(4,4-dimethyl-2-oxidanyl-6-oxidanylidene-cyclohexen-1-yl)-5-oxidanyl-1,3-diazinane-2,4,6-trione], for which half-maximal inhibition (IC50) required 2.3 µM.
With `O=C1C=CC(CN=Nc2nccs2)C=C1[N+](=O)[O-]` (centres undefined) [(4Z)-2-nitro-4-[(2-thiazolylhydrazo)methylidene]-1-cyclohexa-2,5-dienone], inhibition was half-maximal at 30.9 µM (IC50).
For `Cc1ccc(-[n+]2c(O)csc2[C-](C(Cl)=C(Cl)Cl)[N+](=O)[O-])cc1` [(2E)-3-(4-methylphenyl)-2-[2,3,3-tris(chloranyl)-1-nitro-prop-2-enylidene]-1,3-thiazolidin-4-one], half-maximal inhibition (IC50) required 27.7 µM.
